Source: paper PMC9583845, “Characterization of the chicken melanocortin 5 receptor and its potential role in regulating hepatic glucolipid metabolism” (Frontiers in Physiology, 2022)

Experiments:
[1] = tested on: primary chicken hepatocytes; experiment: Lipid quantification by Oil Red O staining, primary cultured chicken hepatocytes; format: cell-based; conditions: 24 h; OD at 540 nm of isopropanol extract; N = 6; Figures 7C–D
Description: (§1) To evaluate the effect of ACTH1-39 on chicken liver, the chicken hepatocytes were prepared and maintained as a monolayer culture. Briefly, one-month-old male chicken hepatocytes were isolated by perfusion of a liver with Ca^2+-free KRB buffer to remove blood cells, and being digested with 0.25% collagenase-I for 10 min. Hepatocytes were obtained following filtering and washing using M199 medium. Then the hepatocytes were plated in a Corning CellBIND 48-well microplate (Corning, NY, cat. no.3338) with M199 medium containing 100 U/ml penicillin and […] streptomycin (Gibco), 5 μg/ml bovine insulin (Sigma), and 5% FBS at 37°C in a 5% CO2 atmosphere. To adhere to the wall, the cells were incubated on the 48-well plate for 4 h.
For lipid quantification by Oil Red O staining, after treatment with ACTH1-39 for 24 h, primary cultured chicken hepatocytes were washed with PBS and then fixed with 4% paraformaldehyde for 30 min. After PBS washing, the Oil Red O working solution was added to stain for 30 min. The stained lipids were then visualized by light microscopy after washing in PBS. To quantify the lipid content, the Oil Red O stained in the cells was extracted with isopropanol by measuring the OD value at 540 nm.

[2] = tested on: primary chicken hepatocytes; experiment: Triglyceride content, primary chicken hepatocytes; format: cell-based; conditions: 24 h, normalized to protein, Figure 7E
Description: as §1
For measurement of triglyceride content, after treated with ACTH1-39 for 24 h, hepatocytes were harvested and triglyceride (TG) content was analyzed using a commercial triglyceride content assay kit (Applygen, Beijing, China, catalog no. E1013). Results were normalized to the protein content of each sample, as determined using a BCA assay kit (Beyotime Institute of Biotechnology, China, catalog no. P0010).

[3] = tested on: SCD mRNA, primary chicken hepatocytes; experiment: SCD mRNA in primary chicken hepatocytes, RT-qPCR; format: cell-based; conditions: 0.1–100 nM, 6 h, N = 4, Figure 8I, listed as not decreased
Description: as §1
For quantitative real-time PCR, primary cultured chicken hepatocytes were treated with various concentrations of ACTH1-39 (or other composition) at 37°C for 6 h. The relative amount of mRNA was calculated using the comparative Ct method. Chicken β-actin gene was used as the reference gene. Amplification of specific transcripts was confirmed by analyzing the melting curve profile performed at the end of each run and by determining the size of the PCR products using agarose electrophoresis and ethidium bromide staining.

chicken MC1R = tested on: chicken MC1R; design: method as in Ling et al., 2003; Ling et al., 2004; Mundy, 2005; conditions: ref Ling et al., 2003, 2004, Mundy, 2005; cited from earlier work
chicken MC3R = tested on: chicken MC3R; design: method as in Zhang et al., 2017; Thomas et al., 2018; conditions: ref Zhang et al., 2017; Thomas et al., 2018; cited from earlier work
7-day chickens = conditions: continuous administration through mini-osmotic pumps, ref Puvadolpirod and Thaxton, 2000a; cited from earlier work
Source text: Early studies have tested the effect of continuous ACTH administration in 7-day chickens ([Puvadolpirod and Thaxton, 2000a]; [Puvadolpirod and Thaxton, 2000b]; [Puvadolpirod and Thaxton, 2000c]; [Puvadolpirod and Thaxton, 2000d]; [Thaxton and Puvadolpirod, 2000]). […] A series of effects of ACT ...

H-SYSMEHFRWGKPVGRKRRPIKVYPNGVDEESAESYPMEF-OH [ACTH1-39]
lipid contents (Oil Red O staining) [1]: lipid contents were lower in the ACTH-treat group in a dose-dependent manner | triglyceride (TG) contents [2]: decreased triglyceride contents | triglyceride (TG) contents ([2]; listed as ACTH): prominently decreased triglyceride (TG) contents | SCD mRNA expression [3]: instead of ACACA, FASN and SCD | MC1R response (chicken MC1R): promoting intracellular cAMP accumulation | activation of chicken MC3R (chicken MC3R): activated by both α-MSH and ACTH | plasma corticosterone (7-day chickens): a fast rise in plasma corticosterone | plasma glucose and relative liver weight (7-day chickens): an increase in plasma glucose and relative liver weight
